# Test system: Maize seedlings
# Test: Maize seedlings shoot weight (seed treatment, greenhouse)
# Type: in vivo
# Method: Maize seeds are grown in loamy sand in the greenhouse at 20 C and 70% humidity for 11 days. After 11 days seedlings were cut off above the soil and fresh weight was determined. Compounds are applied at the following concentration: Poncho™ (pesticidal product comprising clothianidin as active ingredient): 250 μg of clothianidin/kernel; VOTiVO™ (product based on the natural soil bacteria Bacillus firmus (strain I-1582): 50 μg/kernel; Compound A of formula (I): 0.01 μg/kernel. The test is evaluated 11 days after the application. 100% means shoot weight which corresponds to that of the untreated control. Efficacy means in this case the additional % of shoot weight in comparison to that of the untreated control.
smiles,measurement,setting,value
CCCCCC/C=C\CCCOc1cccc(C(=O)N[C@@H]2C(O[C@H]3C(O)C(NC(C)=O)C(OC4C(CO)O[C@@H](O[C@H]5C(O)C(NC(C)=O)C(OC6C(CO)OC(O)[C@@H](NC(C)=O)[C@@H]6O)O[C@H]5CO)[C@@H](NC(C)=O)[C@@H]4O)O[C@H]3CO)OC(CO)[C@@H](O)[C@@H]2O)c1 (stereo partly drawn) [Compound A of formula (I)],Efficacy %,"additional % of shoot weight in comparison to untreated control, 11 days after application",7%
same,Seedling shoot weight (g) (Average on 3 replicates),"fresh weight after 11 days in loamy sand, greenhouse 20 C, 70% humidity, clothianidin 250 μg/kernel, VOTiVO 50 μg/kernel, Compound A 0.01 μg/kernel",15.3 g
same,Found %,"shoot weight relative to untreated control (100%), 11 days after application, same application rates",107%

# — patent US9445589B2, “Active compounds combinations comprising a lipo-chitooligosaccharide derivative and a nematicide, insecticidal or fungicidal compound” (Bayer CropScience AG, priority 2012, dated 2016)
